Measurements: patent US20030181335A1, “Novel 3- (4-cyanophenyl) uracils” (priority 1995, published 2003)

Tests used:
Test in all cases: Greenhouse herbicidal activity, post-emergence
Type in all cases: in vivo
Conditions in all cases: application rate 0.0156 or 0.0078 kg of a.i./ha
[1] = test system: Galium aparine
Description: (§1) The culture containers used were plastic flower pots containing loamy sand with approximately 3.0% of humus as the substrate. The seeds of the test plants were sown separately for each species.
(§2) For the post-emergence treatment, the test plants were first grown to a plant height of 3 to 15 cm, depending on the growth form, and only then treated with the active ingredients which were suspended or emulsified in water. The test plants were either sown directly and grown in the same containers, or grown separately as seedlings and transplanted to the test containers a few days prior to treatment. The application rate for the post-emergence treatment was 0.0156 or 0.0078 kg of a.i. (active ingredient) per ha.
(§3) The plants were kept at from 10-25° C. or 20-35° C., depending on the species. The test period extended to 2-4 weeks. During this time, the plants were tended and their response to individual treatments was evaluated.
(§4) Evaluation was carried out using a scale from 0 to 100. 100 means no emergence of the plants, or complete destruction of at least the aerial parts, and 0 means no damage or normal course of growth.
(§5) The plants used for the greenhouse experiments were the following species: […]

[2] = test system: Solanum nigrum
Description: as §1, §2, §3, §4, §5

[3] = test system: Abutilon theophrasti
Description: as §1, §2, §3, §4, §5

[4] = test system: Ipomoea subspecies
Description: as §1, §2, §3, §4, §5

COc1cc(-n2c(=O)cc(C(F)(F)F)n(N)c2=O)ccc1C#N [Compound No. I.02, 1-Amino-3-[4-cyano-3-methoxyphenyl]-6-trifluoromethyl-1,2,3,4-tetrahydropyrimidine-2,4-dione]
very effective: herbicidal action against Galium aparine (catchweed bedstraw) [1] | herbicidal action against Solanum nigrum (black nightshade) [2] | herbicidal action against Abutilon theophrasti (velvet leaf) [3] | herbicidal action against Ipomoea subspecies (morningglory) [4]
